PMC12040169 (PLOS Biology, 2025)

experiment: in vitro; conditions: human, hela cells, % viability

Compound | viability at 28.5 h, 10 µM
Clc1ccc(-c2ccc(N3CCN(CCN4CCCC4)CC3)nc2)cc1 [CBK037623] | 97.8%
COc1ccccc1-c1nccnc1N[C@H]1CCN(Cc2ccccc2)C1 [CBK037626] | 94.4%
CCCCN(C)c1nccnc1-c1cccnc1 [CBK037631] | 99.2%
COc1ccc(-c2cccc(Nc3cc(OC)c(OC)c(OC)c3)n2)cc1OC [CBK037634] | 55.7%
c1ccc(Oc2ccc(Nc3cccc(-c4ccc5ccccc5c4)n3)cc2)cc1 [CBK037636] | 112%
COc1ccccc1-c1nccnc1NCC(C)O (stereo not drawn) [CBK037637] | 90.4%
O=C(c1ccco1)N1CCN(c2ccc(-c3cccc4cccnc34)cn2)CC1 [CBK037640] | 72.4%
Fc1ccc(-c2ccc(Nc3cccnc3)nc2)cc1Cl [CBK037642] | 93%
c1ccc(Oc2ccc(Nc3ccc(-c4cccc5cccnc45)cn3)cc2)cc1 [CBK037643] | 105%
CCCC/C=C/c1cccc(Nc2cccnc2)n1 [CBK037645] | 103%
COc1cc(-c2nccnc2NCC2CCCCC2)cc(OC)c1OC [CBK037647] | 93.9%
CCCCN(C)c1nccnc1-c1ccncc1 [CBK037655] | 93.4%
CS(=O)(=O)c1ccc(-c2nccnc2N2CCCCC2CO)cc1 (stereo not drawn) [CBK037657] | 102%
c1ccc(N2CCN(c3cccc(-c4ccco4)n3)CC2)nc1 [CBK037662] | 107%
O=c1[nH]ccn1CCNc1ccc(-c2ccccc2Oc2ccccc2)cn1 [CBK037665] | 103%
CCCCN(C)c1nccnc1-c1ccc(CO)cc1 [CBK037666] | 92.3%
CS(=O)(=O)c1ccc(-c2nccnc2N[C@@H]2CCN(Cc3ccccc3)C2)cc1 [CBK037667] | 102%
OCc1cccc(-c2nccnc2NCc2ccc(F)cc2)c1 [CBK037670] | 103%
COc1ccc(-c2nccnc2NCCCN(C)C)cc1 [CBK037671] | 93.9%
Fc1cccc(F)c1-c1cc(Nc2ccc(N3CCOCC3)cc2)ncn1 [CBK037673] | 99.5%
CCOc1cccc(-c2ccc(Nc3ccc(Oc4ccccc4)cc3)nc2)c1 [CBK037679] | 94.4%
O=C(c1ccco1)N1CCN(c2ccc(-c3ccc(F)c(Cl)c3)cn2)CC1 [CBK037683] | 93.9%
c1cc(CCNc2cc(-c3ccc4c(c3)OCO4)ncn2)ccn1 [CBK037689] | 99.5%

Compound | viability at 28.5 h, 10 µM
FC(F)(F)c1cc(-c2cc(N3CCC(N4CCCCC4)CC3)ncn2)cc(C(F)(F)F)c1 [CBK037692] | 92.6%
CCN(CC)CCN1CCN(c2cc(-c3ccc4c(c3)OCO4)ncn2)CC1 [CBK037694] | 86%
CN(C)c1cccc(-c2cccc(NCC(c3cccnc3)N(C)C)n2)c1 (stereo not drawn) [CBK037697] | 117%
Fc1ccc(-c2cccc(Nc3ccc(Oc4ccccc4)cc3)n2)cc1Cl [CBK037699] | 102%
O=C(O)c1ccc(-c2ccc(N3CCN(C(=O)c4ccco4)CC3)nc2)cc1 [CBK037700] | 97.9%
O=C(c1ccco1)N1CCN(c2ccc(/C=C/c3ccccc3)cn2)CC1 [CBK037701] | 98.7%
COc1cc(-c2ccc(Nc3cccnc3)nc2)cc(OC)c1OC [CBK037704] | 84.6%
c1ccc2c(c1)oc1cccc(-c3cc(NCCc4c[nH]cn4)ncn3)c12 [CBK037708] | 94.6%
CC(=O)Nc1cccc(-c2cc(Nc3ccc(N4CCN(Cc5ccccc5)CC4)cc3)ncn2)c1 [CBK037709] | 81.8%
O=[N+]([O-])c1cccc(-c2cc(N3CCC(N4CCCCC4)CC3)ncn2)c1 [CBK037710] | 107%
c1cncc(-c2cc(NCCc3ccncc3)ncn2)c1 [CBK037716] | 114%
COc1cc(Nc2cccc(-c3ccco3)n2)cc(OC)c1OC [CBK037724] | 108%
COCCNc1cc(-c2ccncc2)ncn1 [CBK037729] | 87.6%
CCNc1cc(-c2cccc(N)c2)ncn1 [CBK037731] | 96.4%
O=C(c1ccco1)N1CCN(c2cc(-c3cc(C(F)(F)F)cc(C(F)(F)F)c3)ncn2)CC1 [CBK037734] | 102%
O=C(c1ccco1)N1CCN(c2ccc(-c3cccc(Cl)c3Cl)cn2)CC1 [CBK037737] | 95.4%
COc1cncc(-c2ccc(N3CCN(c4ccccc4C#N)CC3)nc2)c1 [CBK037738] | 107%
CCOc1cccc(-c2ccc(Nc3cccc(NC(=O)c4ccncc4)c3)nc2)c1 [CBK037739] | 49.4%
O=c1[nH]ccn1CCNc1ccc(-c2cccc(Cl)c2Cl)cn1 [CBK037745] | 93.1%
COc1ccc(C(C)C)cc1-c1cc(Nc2cc(OC)c(OC)c(OC)c2)n2nccc2n1 [CBK037746] | 103%
COc1ccc(C(=O)OC(C)(C)C)c(-c2cncc(NCc3ccco3)n2)c1 [CBK037751] | 87.8%
CCN(CC)CCN1CCN(c2cc(-c3ccc(OC(F)(F)F)cc3)ncn2)CC1 [CBK037756] | 96.3%
c1nc(Nc2ccc3[nH]ccc3c2)cc(-c2ccc3c(c2)OCO3)n1 [CBK037761] | 94.4%

Compound | viability at 28.5 h, 10 µM
c1ccc(CCNc2cc(-c3cccc4ccccc34)ncn2)nc1 [CBK037762] | 94.5%
CN(C)CCN(C)c1cc(-c2cccc(-c3ccccc3)c2)ncn1 [CBK037763] | 99.4%
c1coc(-c2ccc(Nc3ccc4c(c3)OCCO4)nc2)c1 [CBK037765] | 96.9%
O=C(O)CCc1ccc(-c2ccc(Nc3cccnc3)nc2)cc1 [CBK037768] | 106%
COc1ccccc1-c1cccc(NCC(c2cccnc2)N(C)C)n1 (stereo not drawn) [CBK037770] | 103%
Cc1ccc(-c2ccc(N3CCN(C(=O)c4ccco4)CC3)nc2)cc1C [CBK037775] | 106%
O=C(O)c1cccc(-c2ccc(Nc3cccc(NC(=O)c4ccncc4)c3)nc2)c1 [CBK037776] | 101%
CCC(CO)Nc1cncc(-c2cccc(O)c2)n1 (stereo not drawn) [CBK037777] | 96%
N#Cc1ccc(-c2cc(NCCc3ccncc3)ncn2)cc1 [CBK037787] | 98.1%
Cc1ccc(S(=O)(=O)Nc2ccc(Nc3cc(-c4ccsc4)ncn3)cc2)cc1 [CBK037792] | 96.5%
c1ccc(COc2ccccc2-c2cc(N3CCN(c4ccccn4)CC3)ncn2)cc1 [CBK037793] | 97.4%
COc1cc(CNc2cc(-c3ccsc3)ncn2)cc(OC)c1OC [CBK037794] | 92%
Clc1cccc(-c2cccc(Nc3cccnc3)n2)c1Cl [CBK037800] | 102%
COc1cncc(-c2ccc(N3CCN(C(=O)c4ccco4)CC3)nc2)c1 [CBK037801] | 96.7%
CC(C)(C)OC(=O)NCc1ccc(-c2ccc(Nc3cccnc3)nc2)cc1 [CBK037804] | 95.3%
COc1ccccc1-c1cc(Nc2ccc(NS(=O)(=O)c3ccc(C)cc3)cc2)ncn1 [CBK037819] | 113%
COc1cc(CNc2cc(-c3ccc4c(c3)OCO4)ncn2)cc(OC)c1OC [CBK037822] | 98.9%
c1ccc(COc2ccccc2-c2cc(NCCc3ccccn3)ncn2)cc1 [CBK037826] | 102%
CCCC/C=C/c1cncc(NC2CCC(N)CC2)n1 (stereo not drawn) [CBK037827] | 97.2%
COc1ccc(-c2cncc(N(C)CCN(C)C)n2)cc1 [CBK037832] | 101%
O=C(c1ccco1)N1CCN(c2cc(-c3cccnc3)ncn2)CC1 [CBK037833] | 101%
CN(C)c1ccc(Nc2cc(-c3cccc4ccccc34)ncn2)cc1 [CBK037835] | 46.8%
COc1cc(-c2cc(N3CCN(CCN4CCCC4)CC3)ncn2)cc(OC)c1OC [CBK037841] | 102%

Compound | viability at 28.5 h, 10 µM
CC(C)(C)OC(=O)NCc1ccc(-c2cc(Nc3cccc(Cl)c3)ncn2)cc1 [CBK037842] | 92.8%
c1ccc(Oc2ccccc2-c2cc(NCCc3c[nH]cn3)ncn2)cc1 [CBK037845] | 82.9%
COc1cc(-c2cncc(NCC(C)(C)CO)n2)cc(OC)c1OC [CBK037854] | 105%
CC(CCCC(C)(C)O)Nc1cncc(-c2cccc(Cl)c2)n1 (stereo not drawn) [CBK037857] | 90.1%
Oc1cccc(-c2cncc(NCCCN3CCOCC3)n2)c1 [CBK037858] | 89.1%
COc1ncc(-c2cn3ccnc3c(N3CCN(CCO)CC3)n2)c(OC)n1 [CBK037869] | 107%
COc1ncc(-c2cncc(N3CCN(c4ccccc4C#N)CC3)n2)c(OC)n1 [CBK037872] | 105%
OCCN1CCN(c2nc(-c3cccnc3)cn3ccnc23)CC1 [CBK037887] | 99.3%
COc1ccc(C(C)C)cc1-c1cncc(N2CCCCC2CCO)n1 (stereo not drawn) [CBK037897] | 94.4%
COc1ccc(C(C)C)cc1-c1cncc(N2CCC(C(=O)O)CC2)n1 [CBK037900] | 104%
OCCN(CCO)c1cncc(-c2cccc(C(F)(F)F)c2)n1 [CBK037917] | 109%
CCCNc1cncc(-c2cccnc2)n1 [CBK037921] | 99.1%
COc1ccc(C(=O)OC(C)(C)C)c(-c2cncc(NC3CCC(N)CC3)n2)c1 (stereo not drawn) [CBK037922] | 109%
CC(=O)Nc1cccc(-c2cn3ccnc3c(N3CCN(C)CC3)n2)c1 [CBK037930] | 95.2%
CCCC/C=C/c1cncc(NCc2ccc(OC)cc2)n1 [CBK037933] | 96.7%
COc1ccc(-c2cncc(N[C@@H](CO)C(C)C)n2)cc1 [CBK037941] | 82.8%
CCCC/C=C/c1cncc(Nc2ccccc2)n1 [CBK037942] | 103%
c1ccc(Nc2nc(-c3ccco3)cn3ccnc23)cc1 [CBK037947] | 86.9%
c1ccc(CNc2nc(-c3ccco3)cn3ccnc23)cc1 [CBK037955] | 90.6%
OCc1ccccc1-c1cn2ccnc2c(Nc2ccc(N3CCOCC3)cc2)n1 [CBK037956] | 85.8%
CC(=O)c1ccc(-c2cn3ccnc3c(N3CCN(C)CC3)n2)s1 [CBK037957] | 94.4%
